# Results from patent US20110027354A1, “ANTI-PA[…]” (priority 2008, published 2011).
# Entries after “also recorded” stand apart in the source; their conditions may differ.
# Experiments:
# mice = assay: Locomotor activity after repeated treatment with drug alone; assay type: in vivo; conditions: repeated treatment i.p./day×7, selegiline or MPPE 2.5 or 5.0 mg/kg, MA 0.5 or 1.0 mg/kg; for locomotor activities: vs. saline
# Protocol: Selegiline or […] was injected (2.5 or 5 mg/kg, i.p.) once a day for 7 consecutive days. Methamphetamine, a positive control, was also administered (0.5 or 1 mg/kg, i.p.) once a day for 7 days.
# (§1) Locomotor activity measured for 30 min one day after the last MPTP administration using an automated video-tracking system (Noldus Information Technology, Wagenin, The Netherlands). Eight test boxes (40×40×30 cm high) were operated simultaneously by an IBM computer. Animals were studied individually during locomotion in each test box, where they were adapted for 5 min before starting the experiment. […] The distance traveled in cm by the animals in horizontal locomotor activity was analyzed. Data were collected and analyzed between 09:00 and 17:00 h (Kim et al., 2001).
# MPTP-treated mice [1] = assay: MPTP-induced hypolocomotion (locomotor activity); assay type: in vivo; conditions: for effect on MPTP-induced hypolocomotor activity: 2.5 mg/kg/i.p./day×9, vs. MPTP alone
# Protocol: as §1
# [2] = system: dopamine (DA), DOPAC and HVA in the striatum; assay: HPLC analysis of striatal DA, DOPAC and HVA; assay type: in vivo, mice; conditions: for effect on MPTP-induced increase of DA turnover rate / effect on MPTP-induced reduction of DOPAC / effect on MPTP-induced reduction of HVA / effect on MPTP-induced reduction of dopamine (DA): 2.5 mg/kg i.p., vs. MPTP alone; for effect on MPTP-induced reduction of dopamine (DA): 2.5 mg/kg; for levels of DA, DOPAC, HVA: drug alone (no MPTP)
# Protocol: At 1 day after last MPTP injections mice were killed by cervical dislocation, the brains were removed and placed on an ice-cooled plate. Striatum was dissected and immediately frozen on dry ice and store at −70° C. until extraction. Brain regions obtained from each animal were weighed, ultrasonicated in 10% perchloric acid containing 10 ng/mg of the internal standard dihydroxybenzilamine, and centrifuged at 20,000 g for 10 min. The levels of DA and its metabolites 3,4-dihydroxyphenylacetic acid (DOPAC) and homovanillic acid (HVA) in brain tissue extracts were determined by HPLC coupled with electrochemical detection as described (Ali et al., 1994). Briefly, striatal tissues were sonicated in 0.2 M perchloric acid (20% W/V) containing the internal standard 3,4-dihydroxybenzylamine (10 mg wet tissue/ml) The homogenate was centrifuged and a 20-μl aliquot of the supernatant was injected into the HPLC equipped with a 3-μm C18 column. The mobile phase was comprised of 26 ml of acetonitrile, 21 ml of tetrahydrofuran and 960 ml of 0.15 M monochloroacetic acid (pH 3.0) containing 50 mg/l of EDTA and 200 mg/l of sodium octyl sulfate. The amount of DA, DOPAC and HVA were determined by comparison of peak height ratio of tissue sample with standards, and were expressed in nanograms per gram of wet weight of tissue.
# [3] = system: tyrosine hydroxylase (TH); assay: Western blotting for pan-TH and TH phosphorylation; assay type: in vivo, mice; conditions: for effect on MPTP-induced decrease of TH phosphorylation at Ser19, Ser31 and Ser40: pre-treatment; for effect on MPTP-induced decrease of TH phosphorylation at Ser19, Ser31 and Ser40 / effect on MPTP-induced decrease of TH-immunoreactivity (TH-IR): vs. MPTP alone
# Protocol: (§2) The western blot assays were performed as described previously (thong et al., 1997). Tissues were homogenized in lysis buffer, containing 200 mM Tris HCl (pH 6.8), 1% SDS, 5 mM ethylene glycol tetraacetic acid, 5 mM ethylenediaminetetraacetic acid, 10% glycerol, 1× phosphatase inhibitor cocktail I, 1× protease inhibitor cocktail. The supernatant fraction was subsequently centrifuged at 30,000×g for 30 min. The resulting pellet was resuspended in the sample buffer. Proteins (20-50 ug/lane) were separated by 6%, 8%, 10% or 15% sodium dodecyl sulfate-polyacrylamide gel electrophoresis and transferred onto the nitrocellulose membranes. Following transfer, the nitrocellulose membranes were preincubated with 5% non-fat milk and incubated overnight at 4° C. with anti-β-actin (Sigma, 1:50000), anti-TH (Chemicon, 1:5000), anti-TH phosphoser19 (Chemicon, 1:5000), anti-TH phosphoser31 (Chemicon, 1:500), anti-TH phosphoser40 (Chemicon, 1:500), anti-F 4/80 (Serotec, 1:500), anti-BDNF (Chemicon, 1:500), anti-GDNF (Santa-Cruz, 1:250), anti-Akt (Cell signaling, 1:1000), anti-phospho Akt ser 473 (Cell signaling, 1:1000), anti-PI3K (Cell signaling, 1:1000), anti-phospho PI3K (Cell signaling, 1:500) and anti-α-synuclein (BD Transduction, 1:500) antibody. After incubation with primary antibody, membranes were incubated with the secondary anti-rabbit IgG, Horseradish Peroxidase (1:1000 dilution, Amersham) or anti-mouse IgG, Horseradish Peroxidase (1:1000, Sigma), or anti-goat IgG, Horseradish Peroxidase (1:1000, Sigma) for 2 h, washed. Subsequently visualized with the Amersham ECL system (Amersham, Arlington Heights, Ill., USA).
# [4] = system: F4/80, a marker of reactive microglia; assay: F4/80 expression (western blot); assay type: in vivo, mice; conditions: striatum; pre-treatment; vs. MPTP alone
# Protocol: as §2, with “After incubation with primary antibody, membranes were incubated with the secondary anti-rabbit IgG, Horseradish Peroxidase (1:1000 dilution, Amersham) or anti-mouse IgG, Horseradish Peroxidase (1:1000, Sigma), or anti-goat IgG, Horseradish Peroxidase (1:1000, Sigma) for 2 h, washed. Subsequently visualized with the Amersham ECL system (Amersham, Arlington Heights, Ill., USA).” left out
# [5] = system: reactive oxygen species (ROS); assay: Determination of ROS formation; assay type: in vivo, mice; conditions: striatum; for ROS level: drug alone (no MPTP); for effect on MPTP-induced increase in ROS level: one day after final MPTP, vs. MPTP alone
# Protocol: The extent of reactive oxygen species (ROS) formation in the prefrontal cortex was assessed by measuring the conversion from 2′,7′-dichlorofluorescin diacetate (DCFH-DA) to dichlorofluoresin. (DCF) as describe by Bourre et al. with slight modification (Sutsumi, S et al., 2002). Brain homogenates were added to a tube containing 2 ml of PBS with 10 nmole of DCFH-DA, dissolved in methanol. Mixtures were incubated at 37° C. for 3 h and then measured the […] at 480 nm excitation and 525 nm emission. DCF is used as a standard.
# [6] = system: brain derived neurotrophic factor (BDNF); assay: BDNF expression (western blot); assay type: in vivo, mice; conditions: striatum; for effect on MPTP-induced reduction of BDNF expression: pre-treatment, vs. MPTP alone
# Protocol: as §2
# MPTP-treated mice [7] = assay: Rota-rod test in MPTP-treated mice; conditions: 2.5 mg/kg i.p.; for effect on MPTP-impaired Rota-rod performance: vs. MPTP alone
# Protocol: The apparatus (Ugo Basile model 7650) consisted of a base platform and a rotating rod with a nonslippery surface. The rod was placed at a height of 15 cm from the base. The rod, 30 cm in length, was divided into 5 equal sections by 6 opaque disks (so that the subjects cannot be distracted by one another). To assess motor performance, the mice were first trained on the apparatus 2 minutes at a rate 4 r.p.m. per 30 s prior to the test. The test was performed 30 minutes after training and an accelerating paradigm was applied at a rate 4 r.p.m. per 30 s, starting from 4 r.p.m. to a maximum speed of 40 r.p.m., then the rotation speed was kept constant at 40 r.p.m. for a maximum of 300 s. The duration for which the animal could maintain balance on the rotating drum was measured as the rotarod latency, with a maximal cut-off time of 300 s.
Structure (SMILES),locomotor patterns (mice),locomotor activities (mice),effect on MPTP-induced hypolocomotor activity (MPTP-treated mice [1]),effect on MPTP-induced increase of DA turnover rate [2],effect on MPTP-induced reduction of DOPAC [2],effect on MPTP-induced reduction of HVA [2],effect on MPTP-induced reduction of dopamine (DA) [2],"levels of DA, DOPAC, HVA [2]","effect on MPTP-induced decrease of TH phosphorylation at Ser19, Ser31 and Ser40 ([3]; SN)","effect on MPTP-induced decrease of TH-immunoreactivity (TH-IR) ([3]; SN, western blotting)","effect on MPTP-induced decrease of TH phosphorylation at Ser19, Ser31 and Ser40 ([3]; striatum)","effect on MPTP-induced decrease of TH-immunoreactivity (TH-IR) ([3]; striatum, western blotting)",effect on MPTP-induced increase in F4/80-immunoreactivity [4],ROS level [5],effect on MPTP-induced increase in ROS level [5],effect on MPTP-induced reduction of BDNF expression [6],effect on MPTP-impaired Rota-rod performance (MPTP-treated mice [7]),also measured
"C#CCN(C)CCc1ccccc1 [MPPE, N-methyl-N-propynyl-2-phenylethylamine]",comparable to those by saline; also recorded: did not show these behavioural side effects,did not significantly alter locomotor activities,significantly attenuated,attenuated,attenuated,attenuated,significantly attenuated,did not show any significant effect,reversed,attenuated,reversed,attenuated,significantly blocked increase in F4/80-immunoreactivity induced by MPTP; also recorded: attenuated,a little induction,attenuated,significantly attenuated,significantly attenuated,"attenuation of MPTP-induced hypolocomotor activity compared with selegiline (MPTP-treated mice [1]; 2.5 mg/kg i.p., vs. selegiline+MPTP): more pronounced in the MPPE-pretreated mice than selegiline-pretreated case; attenuation for DA level compared with selegiline ([2]; vs. selegiline+MPTP): more pronounced in the MPPE-treated mice; attenuation of DA turnover rate increase compared with selegiline ([2]; vs. selegiline+MPTP): more evident than by selegiline; effect on TH phosphorylation at Ser19, Ser31 and Ser40 compared with selegiline ([3]; striatum and SN, vs. selegiline+MPTP): more effective; attenuation of TH-IR decrease compared with selegiline ([3]; striatum and SN, western blotting, vs. selegiline+MPTP): more evident; attenuation of ROS increase compared with selegiline ([5]; vs. selegiline+MPTP): appeared to be more underlined in the MPPE-pretreated mice; enhancement of BDNF expression compared with selegiline ([6]; vs. selegiline+MPTP): more effective; attenuation of MPTP-reduced rota-rod performance compared with selegiline (MPTP-treated mice [7]; vs. selegiline-pretreated): more pronounced in the MPPE-pretreated mice than selegiline-pretreated case"
"C#CCN(C)[C@H](C)Cc1ccccc1 [selegiline, reference compound]",circling locomotor patterns,significantly increased,significantly attenuated,attenuated,attenuated,attenuated,significantly attenuated,did not show any significant effect,reversed,attenuated,reversed,attenuated,significantly blocked increase in F4/80-immunoreactivity induced by MPTP; also recorded: attenuated,a little induction,attenuated,significantly attenuated,significantly attenuated,locomotor patterns (mice; listed as Sel): typical circling locomotor patterns
